Experimental data from US10206399B2, “Herbicidal composition comprising uracil compound as active ingredient” (Dongbu Farm Hannong Co., Ltd., priority 2012, dated 2019).
Where two headings read alike, the source gives them in different places.

Experiments:
Aeschynomene indica = assay: whole plant or invertebrate
Description: (§1) X is % damage by uracil compound (a) of formula 1 at the rate of application of p kg/ha; Y is % damage by conventional herbicidal compound (b) at the rate of application of q kg/ha; and E is the expected damage caused by compounds (a) and (b) at a rate of application of p and q kg/ha.
(§2) The expected activity for a given combination of two herbicides can be calculated using equation 1 above.

Echinochloa crus = settings: for Echinochloa crus mortality, measured value: 20 days after treatment; for plant mortality, measured value: Echinochloa crus
Description: as §1, §2

Abutilon theophrasti = assay: whole plant or invertebrate
Description: as §1, §2

Xanthium spinosum = assay: whole plant or invertebrate
Description: as §1, §2

Digitaria sanguinalis = settings: for Digitaria sanguinalis mortality, measured value: 20 days after treatment; for plant mortality, measured value: Digitaria sanguinalis
Description: as §1, §2

[1] = 480 h, read-out: Aeschynomene indica mortality, measured value
[2] = 480 h, read-out: Abutilon theophrasti mortality, measured value
[3] = 480 h, read-out: Xanthium spinosum mortality, measured value
[4] = read-out: plant mortality, measured value, 125 g/ha
[5] = read-out: plant mortality, measured value, 250 g/ha
[6] = read-out: plant mortality, measured value, 500 g/ha
[7] = read-out: plant mortality, measured value, 75 g/ha
[8] = read-out: plant mortality, measured value, 150 g/ha
[9] = read-out: plant mortality, measured value, 300 g/ha

## CC(Oc1ccc(Oc2ccc(C(F)(F)F)cn2)cc1)C(=O)O (stereo not drawn) [Fluazifop, reference compound]
Aeschynomene indica; [1]
  mortality at 50 g/ha: 0%
  mortality at 100 g/ha: 0%
  mortality at 200 g/ha: 0%
Echinochloa crus; 50 g/ha
  Echinochloa crus mortality, measured value: 10%
Echinochloa crus; 100 g/ha
  Echinochloa crus mortality, measured value: 26%
Echinochloa crus; 200 g/ha
  Echinochloa crus mortality, measured value: 61%
Abutilon theophrasti; [2]
  mortality at 50 g/ha: 0%
  mortality at 100 g/ha: 0%
  mortality at 200 g/ha: 0%
Xanthium spinosum; [3]
  mortality at 50 g/ha: 0%
  mortality at 100 g/ha: 0%
  mortality at 200 g/ha: 0%
Digitaria sanguinalis; 50 g/ha
  Digitaria sanguinalis mortality, measured value: 9%
Digitaria sanguinalis; 100 g/ha
  Digitaria sanguinalis mortality, measured value: 21%
Digitaria sanguinalis; 200 g/ha
  Digitaria sanguinalis mortality, measured value: 52%

## CC(C)N1C(=O)c2ccccc2NS1(=O)=O [Bentazone]
Aeschynomene indica; [4]
  pest or weed control at 125 g/ha: 10%
Aeschynomene indica; [5]
  pest or weed control at 250 g/ha: 22%
Aeschynomene indica; [6]
  pest or weed control at 500 g/ha: 52%
Echinochloa crus; 125 g/ha
  plant mortality, measured value: 0
Echinochloa crus; 250 g/ha
  plant mortality, measured value: 0
Echinochloa crus; 500 g/ha
  plant mortality, measured value: 0
Abutilon theophrasti; [4]
  pest or weed control at 125 g/ha: 9%
Abutilon theophrasti; [5]
  pest or weed control at 250 g/ha: 22%
Abutilon theophrasti; [6]
  pest or weed control at 500 g/ha: 49%
Xanthium spinosum; [4]
  pest or weed control at 125 g/ha: 8%
Xanthium spinosum; [5]
  pest or weed control at 250 g/ha: 18%
Xanthium spinosum; [6]
  pest or weed control at 500 g/ha: 45%
Digitaria sanguinalis; 125 g/ha
  plant mortality, measured value: 0
Digitaria sanguinalis; 250 g/ha
  plant mortality, measured value: 0
Digitaria sanguinalis; 500 g/ha
  plant mortality, measured value: 0

## COc1c(Cl)ccc(Cl)c1C(=O)O [Dicamba]
Aeschynomene indica; read-out: Data (measured value) Aeschynomene indica, 75 g/ha
  pest or weed control at 75 g/ha: 7%
Aeschynomene indica; read-out: Data (measured value) Aeschynomene indica, 150 g/ha
  pest or weed control at 150 g/ha: 23%
Aeschynomene indica; read-out: Data (measured value) Aeschynomene indica, 300 g/ha
  pest or weed control at 300 g/ha: 51%
Echinochloa crus; 75 g/ha
  Data (measured value) Echinochloa crus: 0
Echinochloa crus; 150 g/ha
  Data (measured value) Echinochloa crus: 0
Echinochloa crus; 300 g/ha
  Data (measured value) Echinochloa crus: 0
Abutilon theophrasti; read-out: Data (measured value) Abutilon theophrasti, 75 g/ha
  pest or weed control at 75 g/ha: 9%
Abutilon theophrasti; read-out: Data (measured value) Abutilon theophrasti, 150 g/ha
  pest or weed control at 150 g/ha: 20%
Abutilon theophrasti; read-out: Data (measured value) Abutilon theophrasti, 300 g/ha
  pest or weed control at 300 g/ha: 46%
Xanthium spinosum; read-out: Data (measured value) Xanthium spinosum, 75 g/ha
  pest or weed control at 75 g/ha: 13%
Xanthium spinosum; read-out: Data (measured value) Xanthium spinosum, 150 g/ha
  pest or weed control at 150 g/ha: 29%
Xanthium spinosum; read-out: Data (measured value) Xanthium spinosum, 300 g/ha
  pest or weed control at 300 g/ha: 62%
Digitaria sanguinalis; 75 g/ha
  Data (measured value) Digitaria sanguinalis: 0
Digitaria sanguinalis; 150 g/ha
  Data (measured value) Digitaria sanguinalis: 0
Digitaria sanguinalis; 300 g/ha
  Data (measured value) Digitaria sanguinalis: 0

## COC(=O)CCNC(=O)C(C)Oc1cc(-n2c(=O)cc(C(F)(F)F)n(C)c2=O)c(F)cc1Cl (stereo not drawn) [Compound 1, 3-[{2-[2-chloro-5-(3,6-dihydro-3-methyl-2,6-dioxo-4-trifluoromethyl-1(2H)-pyrimidinyl)-4-fluorophenoxy]-1-oxopropyl}amino]propionic acid methyl ester]
Aeschynomene indica; [1]
  mortality at 4 g/ha: 18%
  mortality at 8 g/ha: 45%
  mortality at 16 g/ha: 60%
Echinochloa crus; 4 g/ha
  Echinochloa crus mortality, measured value: 0%
Echinochloa crus; 8 g/ha
  Echinochloa crus mortality, measured value: 5%
Echinochloa crus; 16 g/ha
  Echinochloa crus mortality, measured value: 17%
Abutilon theophrasti; [2]
  mortality at 4 g/ha: 17%
  mortality at 8 g/ha: 45%
  mortality at 16 g/ha: 60%
Xanthium spinosum; [3]
  mortality at 4 g/ha: 11%
  mortality at 8 g/ha: 39%
  mortality at 16 g/ha: 52%
Digitaria sanguinalis; 4 g/ha
  Digitaria sanguinalis mortality, measured value: 0%
Digitaria sanguinalis; 8 g/ha
  Digitaria sanguinalis mortality, measured value: 5%
Digitaria sanguinalis; 16 g/ha
  Digitaria sanguinalis mortality, measured value: 20%

## CP(=O)(O)CCC(N)C(=O)O (stereo not drawn) [Glufosinate, reference compound]
Aeschynomene indica; [1]
  mortality at 75 g/ha: 5%
  mortality at 150 g/ha: 18%
  mortality at 300 g/ha: 46%
Aeschynomene indica; [7]
  pest or weed control at 75 g/ha: 5%
Aeschynomene indica; [8]
  pest or weed control at 150 g/ha: 18%
Aeschynomene indica; [9]
  pest or weed control at 300 g/ha: 46%
Echinochloa crus; 75 g/ha
  Echinochloa crus mortality, measured value: 15%
  plant mortality, measured value: 15
Echinochloa crus; 150 g/ha
  Echinochloa crus mortality, measured value: 29%
  plant mortality, measured value: 29
Echinochloa crus; 300 g/ha
  Echinochloa crus mortality, measured value: 60%
  plant mortality, measured value: 60
Abutilon theophrasti; [2]
  mortality at 75 g/ha: 7%
  mortality at 150 g/ha: 25%
  mortality at 300 g/ha: 49%
Abutilon theophrasti; [7]
  pest or weed control at 75 g/ha: 7%
Abutilon theophrasti; [8]
  pest or weed control at 150 g/ha: 25%
Abutilon theophrasti; [9]
  pest or weed control at 300 g/ha: 49%
Xanthium spinosum; [3]
  mortality at 75 g/ha: 13%
  mortality at 150 g/ha: 25%
  mortality at 300 g/ha: 56%
Xanthium spinosum; [7]
  pest or weed control at 75 g/ha: 13%
Xanthium spinosum; [8]
  pest or weed control at 150 g/ha: 25%
Xanthium spinosum; [9]
  pest or weed control at 300 g/ha: 56%
Digitaria sanguinalis; 75 g/ha
  Digitaria sanguinalis mortality, measured value: 11%
  plant mortality, measured value: 11
Digitaria sanguinalis; 150 g/ha
  Digitaria sanguinalis mortality, measured value: 27%
  plant mortality, measured value: 27
Digitaria sanguinalis; 300 g/ha
  Digitaria sanguinalis mortality, measured value: 57%
  plant mortality, measured value: 57
